Key:
sick people = assay: Application of the cream on sick people; conditions: in vivo
Method: In the numerous tests that were carried out on sick people, it has been observed that the introduction of a correct concentration of polyphenols (with “correct” being understood as the fact that there are 200 mg of the polyphenol in each 5 g application of pharmaceutical composition) in a solution for topical use (preferably a cream) has very beneficial effects in treating at least the following pathologies: subcutaneous inflammations such as fasciitis and fasciosis, tendon inflammation or irritation (tendonitis), carpal tunnel inflammation, varicose vein reduction, joint inflammation and blows and bruises.

[1] = printed as negative log P; cited from earlier work
[2] = safety index of 100 times, cited from earlier work

Row | Structure (SMILES) | crossing of the blood-brain barrier (sick people) | log P [1] | recommended limit via the dermal route ([2]; dermal route) [mg/kg] | recommended limit via the oral route ([2]; oral route) [mg/kg]
1 | C[C@@H]1O[C@@H](OC[C@H]2O[C@@H](Oc3c(-c4ccc(O)c(O)c4)oc4cc(O)cc(O)c4c3=O)[C@H](O)[C@@H](O)[C@@H]2O)[C@H](O)[C@H](O)[C@H]1O [rutin] | able to cross the blood-brain barrier | – | – | –
2 | CCOCCOCCO [transcutol, 2-(2-Ethoxyethoxy) ethanol] | – | ~0.5 | 20 | 10

Reference: US20240269291A1, “Transcutol-Polyol-Active Agent Ternary Complex, Pharmaceutical Composition for Topical Use Comprising Same, Method for Obtaining Same and Use Thereof in Different Pathologies” (FUNDACIÓN GAIKER, priority 2021, published 2024)
